Reference: patent publication US11407792B2, “Regulating electron flow using fragmented proteins” (WILLIAM MARSH RICE UNIVERSITY, priority 2017, dated 2022)

How the values were obtained:
sFd-35-ER = assay: Complementation of E. coli EW11 growth by sFd-35-ER with 4-HT and other estrogen receptor modulators; assay type: cell-based, Escherichia coli
Experimental: Growth assay. For all growth experiments, E. coli EW11 were freshly transformed with two plasmids, one encoding the e-donor and acceptor pair (FNR and SIR) and the other encoding either a native Fd, a C42A mutant of Ml Fd that is unable to coordinate a 2Fe-2S cluster, or an engineered Fd. Starter cultures were inoculated using single colonies obtained by selecting for colonies containing both plasmids on LB-agar plates. These starter cultures were grown in deep-well 96-well plates for 18 hours at 37° C. in 1 mL of a non-selective modified M9 medium (M9c), which contained sodium phosphate, dibasic (6.8 g/L), sodium phosphate, monobasic (3 g/L), sodium chloride (0.5 g/L), ammonium chloride (1 g/L), calcium chloride (0.1 mM), magnesium sulfate (10 mM), ferric citrate (24 mg/L), p-aminobenzoic acid (2 mg/L), inositol (20 mg/L), adenine (5 mg/L), uracil (20 mg/L), tryptophan (40 mg/L), tyrosine (1.2 mg/L), and the remaining 18 amino acids (80 mg/L each). For auxotroph complementation analysis, starter cultures that had been grown to stationary phase in M9c were diluted ˜1:100 using a 96-well replicator pin into 100 μL of a selective modified M9 medium (M9sa), which is identical to M9c but lacks cysteine and methionine. […] Optical density (OD) measurements were taken every 10 minutes. To select for the Fd and e-donor/acceptor plasmids, all growth steps included chloramphenicol and streptomycin at 34 μg/mL and 100 μg/mL, respectively.
To test whether this domain-insertion strategy can be used to diversify the chemical regulation of sFd-35, the ligand-binding domain (LBD) of the human estrogen receptor (ER) was inserted after residue 35 to create sFd-35-ER (FIG. 26E).
(§1) The activity of sFd-35-ER was evaluated by expressing this protein using an aTc-inducible promoter (FIG. 31B). […] This protein was also expressed as a fusion to RFP (sFd-35-ER-RFP) to evaluate how 4-HT affects protein expression.
To evaluate how these different modulators affect sFd-35-ER ET, sFd-35-ER growth complementation was evaluated in the presence of agonists, antagonists, and an endocrine disruptor (FIG. 32D).

sFd-35-ER-RFP = conditions: 4-HT in ethanol compared to ethanol alone
Sequence of sFd-35-ER-RFP (P03372 311-547 limits assumed): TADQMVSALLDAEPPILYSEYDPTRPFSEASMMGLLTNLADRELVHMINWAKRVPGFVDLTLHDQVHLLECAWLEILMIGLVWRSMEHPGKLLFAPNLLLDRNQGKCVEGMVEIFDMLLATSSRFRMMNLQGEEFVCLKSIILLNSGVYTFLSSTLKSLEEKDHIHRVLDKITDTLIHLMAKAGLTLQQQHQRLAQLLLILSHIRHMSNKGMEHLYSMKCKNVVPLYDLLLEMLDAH
Experimental: Fluorescence spectroscopy.
as §1

[1] = test system: lysates derived from E. coli EW11 expressing FNR and SIR; assay: Sulfide production assay in cell lysates (sulfidefluor-7 fluorescence); assay type: biochemical, Escherichia coli; conditions: no Fd added
Experimental: Cell lysates. Electrocompetent E. coli EW11 were transformed with the plasmid (pSAC01) that constitutively expresses Zea mays FNR and SIR. Cells were grown to stationary phase at 37° C. and 250 rpm in 2×YTPG medium (16 g/L tryptone, 10 g/L yeast extract, 5 g/L NaCl, 3 g/L KH2PO4, 7 g/L K2HPO4, and 18 g/L glucose) containing 100 μg/mL streptomycin. Cells from overnight cultures were diluted 1:100 in fresh 2×YTPG medium containing streptomycin, grown for 2 hours at 37° C. while shaking at 250 rpm until mid-log phase, and then shifted to 30° C. and grown for an additional 4 hours. […] Protein content in lysates was quantified using Bio-Rad Protein Assay Dye Reagent Concentrate (Bio-Rad), using bovine serum albumin (NEB) as a standard.
Sulfide production assay. […] Following NADPH or protein addition, reactions were arrayed in a Corning 96 well plate at room temperature (Cost ar #3603), transferred to an Infinite m1000 Pro plate reader (Tecan), and heated to 37° C. and shaken at 250 rpm with fluorescence readings (λex=495 nm, λem=520 nm) every 15 seconds. […]
SIR activity was monitored in desalted cell lysates using sulfidefluor-7 (Lin et al., 2013), a fluorescent probe for hydrogen sulfide. […]

[2] = test system: split Fd fused to estrogen receptor
Sequence of split Fd fused to estrogen receptor (P03372 311-547 limits assumed): as above

Sequence of sFd-35-ER (P03372 311-547): as the sequence (P03372 311-547 limits assumed) above

## 4-hydroxytamoxifen [4-HT]
sFd-35-ER
  4-HT concentration at which growth of sFd-35-ER is enhanced significantly above the C42A mutant: ≥ 6.25 µM
  Activation of sFd-35-ER ET (growth complementation): activated
  Effect of estrogen receptor modulators on complementation of E. coli EW11 by sFd-35-ER, compared to DMSO alone: significantly enhance growth
sFd-35-ER; read-out: k1/2 4-HT, complementation of E. coli EW11 by sFd-35-ER
  EC50: 2110 nM
sFd-35-ER-RFP
  Effect of 4-HT on relative fluorescence of cells expressing sFd-35-ER-RFP: no significant increase in fluorescence
[1]
  sulfide production rate on adding 4-HT alone: not enhanced
[2]
  effect of 4-HT addition alone on rate: does not affect rate
[2]; 4-HT added at t=0
  time after chemical addition at which the higher rate of sulfide production is detectable: ≤ 1.5 min
